Laboratory results from patent US11225477B2, “Inhibitors of influenza virus replication, application methods and uses thereof” (SUNSHINE LAKE PHARMA CO., LTD., priority 2015, dated 2022).

Test system: virus H1N1 A/Weiss/43
Assay: microbe, parasite or virus in culture
Format: cell-based
Details: Influenza A virus, 120 h; MDCK cells, H1N1 A/Weiss/43, Scheme 2: 8 concentrations 50 nM to 0.023 nM, 5 days, CCK-8

SMILES	EC50
O=C(O)C1C2CCC(CC2)C1Nc1nc(-c2c[nH]c3ncc(F)cc23)nc(-c2cc3ccccc3o2)c1F (racemic) [Example 54, (+/−)-trans-3-((6-(benzofuran-2-yl)-5-fluoro-2-(5-fluoro-1H-pyrrolo[2,3-b]pyridin-3-yl)pyrimidin-4-yl)amino)bicyclo[2.2.2]octane-2-carboxylic Acid]	261 pM
O=C(O)C1C2CCC(CC2)C1Nc1cc(-c2cccs2)nc(-c2c[nH]c3ncc(F)cc23)n1 (racemic) [Example 23, (+/−)-trans-3-((2-(5-fluoro-1H-pyrrolo[2,3-b]pyridin-3-yl)-6-(thiophen-2-yl)pyrimidin-4-yl)amino)bicyclo[2.2.2]octane-2-carboxylic Acid]	104 pM
CC(C)n1ccc2c(N[C@H]3C4CCC(CC4)[C@@H]3C(=O)O)nc(-c3c[nH]c4ncc(F)cc34)nc21 [Example 78, (2S,3S)-3-((2-(5-fluoro-1H-pyrrolo[2,3-b]pyridin-3-yl)-7-isopropyl-7H-pyrrolo [2,3-d]pyrimidin-4-yl)amino)bicyclo[2.2.2]octane-2-carboxylic Acid]	236 pM
O=C(O)[C@H]1C2CCC(CC2)C1Nc1cc(-c2ccc([N+](=O)[O-])o2)nc(-c2c[nH]c3ncc(F)cc23)n1 (stereo in doubt) [Example 24a, (2S,3S)-3-((2-(5-fluoro-1H-pyrrolo[2,3-b]pyridin-3-yl)-6-(5-nitrofuran-2-yl)pyrimidin-4-yl)amino)bicyclo[2.2.2]octane-2-carboxylic Acid]	744 pM
O=C(O)[C@H]1C2CCC(CC2)C1Nc1cc(-c2ccco2)nc(-c2c[nH]c3ncc(F)cc23)n1 (stereo in doubt) [Example 9a, (2S,3S)-3-((2-(5-fluoro-1H-pyrrolo[2,3-b]pyridin-3-yl)-6-(furan-2-yl)pyrimidin-4-yl)amino)bicyclo[2.2.2]octane-2-carboxylic Acid]	39 pM
O=C(O)C1C2CCC(CC2)C1Nc1nc(-c2c[nH]c3ncc(F)cc23)nc(-c2cc3ccccc3s2)c1F (racemic) [Example 55, (+/−)-trans-3-((6-(benzo[b]thiophen-2-yl)-5-fluoro-2-(5-fluoro-1H-pyrrolo [2,3-b]pyridin-3-yl)pyrimidin-4-yl)amino)bicyclo[2.2.2]octane-2-carboxylic Acid]	874 pM
O=C(O)C1C2CCC(CC2)C1Nc1cc(-c2cc3ccccc3o2)nc(-c2c[nH]c3ncc(F)cc23)n1 (racemic) [Example 16, (+/−)-trans-3-((6-(benzofuran-2-yl)-2-(5-fluoro-1H-pyrrolo[2,3-b]pyridin-3-yl)pyrimidin-4-yl)amino)bicyclo[2.2.2]octane-2-carboxylic Acid]	540 pM
O=C(O)[C@H]1C2CCC(CC2)C1Nc1cc(-c2ccccc2)nc(-c2c[nH]c3ncc(F)cc23)n1 (stereo in doubt) [Example 4a, (2S,3S)-3-((2-(5-fluoro-1H-pyrrolo[2,3-b]pyridin-3-yl)-6-phenylpyrimidin-4-yl)amino)bicyclo[2.2.2]octane-2-carboxylic Acid]	170 pM
CC(C)n1ccc2c(NC3C4CCC(CC4)C3C(=O)O)nc(-c3c[nH]c4ncc(F)cc34)nc21 (racemic) [Example 25, (+/−)-trans-3-((2-(5-fluoro-1H-pyrrolo[2,3-b]pyridin-3-yl)-7-isopropyl-7H-pyrrolo[2,3-d]pyrimidin-4-yl)amino)bicyclo[2.2.2]octane-2-carboxylic Acid]	260 pM
O=C(O)C1C2CCC(CC2)C1Nc1nc(-c2c[nH]c3ncc(F)cc23)nc(-c2ccco2)c1F (racemic) [Example 49, (+/−)-trans-3-((5-fluoro-2-(5-fluoro-1H-pyrrolo[2,3-b]pyridin-3-yl)-6-(furan-2-yl)pyrimidin-4-yl)amino)bicyclo[2.2.2]octane-2-carboxylic Acid]	68 pM
